Reference: patent US20240335451A1, “ACRYLAMIDE DERIVATIVES USEFUL AS ANTI-INFLAMMATORY AGENTS” (Sitryx Therapeutics Limited, priority 2021, published 2024)

Key:
Assay type in all cases: cell-based
[1] = test system: IL-1β cytokine output from THP-1s; experiment: THP-1 AlphaLISA IL-1β cytokine assay (differentiated THP-1 cells, LPS then nigericin); settings: 30 min pre-incubation, LPS 24 hr, nigericin 1 hour
Procedure: (§1) Measuring Inhibitory Effects on IL-1β and IL-6 Cytokine Output from THP-1s
(§2) The cytokine inhibition profiles of compounds of formula (I) were determined in a differentiated THP-1 cell assay. All assays were performed in RPMI-1640 growth medium (Gibco), supplemented with 10% fetal bovine serum (FBS; Gibco), 1% penicillin-streptomycin and 1% sodium pyruvate unless specified otherwise. The IL-1β and IL-6 cytokine inhibition assays were each run in a background of differentiated THP-1 cells as described below. All reagents described were from Sigma-Aldrich unless specified otherwise. Compounds were prepared as 10 mM DMSO stocks.
(§3) THP-1 cells were expanded as a suspension up to 80% confluence in appropriate growth medium. Cells were harvested, suspended, and treated with an appropriate concentration of phorbol 12-myristate 13-acetate (PMA) over a 72 hr period (37° C./5% CO2).
(§4) Following 72 hrs of THP-1 cell incubation, cellular medium was removed and replaced with fresh growth media containing 1% of FBS. Working concentrations of compounds were prepared separately in 10% FBS treated growth medium and pre-incubated with the cells for 30 minutes (37° C./5% CO2). Following the 30 minute compound pre-incubation, THP-1s were treated with an appropriate concentration of LPS and the THP-1s were subsequently incubated for a 24 hr period (37° C./5% CO2). An appropriate final concentration of Nigericin was then dispensed into the THP-1 plates and incubated for 1 hour (37° C./5% CO2) before THP-1 supernatants were harvested and collected in separate polypropylene 96-well holding plates.
(§5) Reagents from each of the IL-1β and IL-6 commercial kits (Perkin Elmer) were prepared and run according to the manufacturer's instructions. Subsequently, fluorescence signal detection in a microplate reader was measured (EnVision® Multilabel Reader, Perkin Elmer).
(§6) Percentage inhibition was calculated per cytokine by normalizing the sample data to the high and low controls used within each plate (+/−LPS respectively).

[2] = test system: IL-6 cytokine output from THP-1s; experiment: THP-1 AlphaLISA IL-6 cytokine assay (differentiated THP-1 cells, LPS then nigericin); settings: 30 min pre-incubation, LPS 24 hr, nigericin 1 hour
Procedure: as §1, §2, §3, §4, §5, §6

[3] = test system: NRF2 (nuclear factor erythroid 2-related factor 2); experiment: NRF2 activation assay (DiscoverX PathHunter NRF2 translocation kit, U2OS cells); settings: for Emax / EC50: Homo sapiens; for Emax: U2OS; for EC50: U2OS PathHunter cells, 6 hours
[4] = +GSH, normalised to dimethyl fumarate high control
[5] = −GSH, normalised to dimethyl fumarate high control

Structure (SMILES) | IC50 [1] [µM] | IC50 [2] [µM] | NRF2 activation Emax, +GSH [3, 4] [%] | NRF2 activation Emax, −GSH [3, 5] [%] | IC50 ([1]; Homo sapiens) [µM] | IC50 ([2]; Homo sapiens) [µM] | Emax [3, 4] [%] | Emax [3, 5] [%] | EC50 ([3]; +GSH (30 minute compound/GSH pre-incubation)) [µM] | EC50 ([3]; −GSH) [µM]
C=C(CC(=O)OCCCCCCCC)C(=O)O [4-octyl itaconate, reference compound] | 39.8 | 21.1 | 148 | 165 |  |  |  |  |  | 
C=C(CC(=O)OC1(c2ccc(C(F)(F)F)c(F)c2)CCC1)C(=O)NC [Example 22, 1-(3-fluoro-4-(trifluoromethyl)phenyl)cyclobutyl 3-(methylcarbamoyl)but-3-enoate] |  |  |  |  | 11 | 9.4 | 48 | 109 | > 100 | 14.5
